Reference: PubChem BioAssay AID1963438 (Molecular Pharmacology Branch, DTP, NCI, 2024)
Where “and” joins values, the source holds several entries; their conditions need not be identical. Identical values can stand only once. Values belong to the molecule of their own block, whether it stands above or below them.

Tested on: NCI-H510 multicellular tumor spheroid growth, % test/control
Experiment: Anticancer human tumor NCI-H510 cell line growth inhibition [Asc];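 also: spheroids exposed to agents for 7 days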;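 as to viability, T/C: 100% = DMSO vehicle control wells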
Conditions: for viability, T/C: stronger effect = lower value
Outline: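 Tumor cells were grown as complex spheroids with human endothelial cells (HUVEC) and human mesenchymal stem cells as stroma. Agents were tested alone and in combination, in half-log steps down from the clinical Cmax, or from 10 microM where Cmax was unknown.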

[1] = curve of first compound, second compound 0.1 µM
[2] = curve of first compound, second compound 0.316 µM
[3] = curve of first compound, second compound 1 µM
[4] = second compound 0.1 µM, first compound 0.00949 µM
[5] = second compound 0.1 µM, first compound 0.03 µM
[6] = second compound 0.1 µM, first compound 0.0949 µM
[7] = second compound 0.1 µM, first compound 0.3 µM
[8] = second compound 0.1 µM, first compound 0.949 µM
[9] = second compound 0.1 µM, first compound 3 µM
[10] = second compound 0.316 µM, first compound 0.00949 µM
[11] = second compound 0.316 µM, first compound 0.03 µM
[12] = second compound 0.316 µM, first compound 0.0949 µM
[13] = second compound 0.316 µM, first compound 0.3 µM
[14] = second compound 0.316 µM, first compound 0.949 µM
[15] = second compound 0.316 µM, first compound 3 µM
[16] = second compound 1 µM, first compound 0.00949 µM
[17] = second compound 1 µM, first compound 0.03 µM
[18] = second compound 1 µM, first compound 0.0949 µM
[19] = second compound 1 µM, first compound 0.3 µM
[20] = second compound 1 µM, first compound 0.949 µM
[21] = second compound 1 µM, first compound 3 µM
[22] = curve of first compound, second compound 0.03 µM
[23] = curve of first compound, second compound 0.0949 µM
[24] = curve of first compound, second compound 0.3 µM
[25] = curve of first compound, second compound 0.949 µM
[26] = curve of first compound, second compound 3 µM
[27] = second compound 0.03 µM, first compound 0.0316 µM
[28] = second compound 0.03 µM, first compound 0.1 µM
[29] = second compound 0.03 µM, first compound 0.316 µM
[30] = second compound 0.03 µM, first compound 1 µM
[31] = second compound 0.03 µM, first compound 3.16 µM
[32] = second compound 0.03 µM, first compound 10 µM
[33] = second compound 0.0949 µM, first compound 0.0316 µM
[34] = second compound 0.0949 µM, first compound 0.1 µM
[35] = second compound 0.0949 µM, first compound 0.316 µM
[36] = second compound 0.0949 µM, first compound 1 µM
[37] = second compound 0.0949 µM, first compound 3.16 µM
[38] = second compound 0.0949 µM, first compound 10 µM
[39] = second compound 0.3 µM, first compound 0.0316 µM
[40] = second compound 0.3 µM, first compound 0.1 µM
[41] = second compound 0.3 µM, first compound 0.316 µM
[42] = second compound 0.3 µM, first compound 1 µM
[43] = second compound 0.3 µM, first compound 3.16 µM
[44] = second compound 0.3 µM, first compound 10 µM
[45] = second compound 0.949 µM, first compound 0.0316 µM
[46] = second compound 0.949 µM, first compound 0.1 µM
[47] = second compound 0.949 µM, first compound 0.316 µM
[48] = second compound 0.949 µM, first compound 1 µM
[49] = second compound 0.949 µM, first compound 3.16 µM
[50] = second compound 0.949 µM, first compound 10 µM
[51] = second compound 3 µM, first compound 0.0316 µM
[52] = second compound 3 µM, first compound 0.1 µM
[53] = second compound 3 µM, first compound 0.316 µM
[54] = second compound 3 µM, first compound 1 µM
[55] = second compound 3 µM, first compound 3.16 µM
[56] = second compound 3 µM, first compound 10 µM

SMILES: CCN1C(C(=O)NC23CCC(C(=O)O)(CC2)CC3)C(c2cccc(Cl)c2F)C2(C(=O)Nc3cc(Cl)ccc32)C12CCCCC2 (stereo not given) + Cc1c(S(C)(=O)=O)c(-c2cc(F)cc(N3CCN(c4ccc(NS(=O)(=O)c5ccc(NC(CCN6CCC(C(=O)OCCCP(=O)(O)O)CC6)CSc6ccccc6)c(S(=O)(=O)C(F)(F)F)c5)cc4)CC3)c2)c(-c2ccc(Cl)cc2)n1C(C)C
- IC50 [1]: > 3 µM
- IC50 [2]: > 3 µM
- IC50 [3]: > 3 µM
- IC50 (curve of first compound, second compound 3.16 µM): > 3 µM
- IC50 (curve of first compound, second compound 10 µM): > 3 µM
- viability, T/C [4]: 101%
- viability, T/C [5]: 97.6%
- viability, T/C [6]: 95.5%
- viability, T/C [7]: 96.3%
- viability, T/C [8]: 80.3%
- viability, T/C [9]: 104%
- viability, T/C [10]: 86.3%
- viability, T/C [11]: 105%
- viability, T/C [12]: 94.8%
- viability, T/C [13]: 94.9%
- viability, T/C [14]: 88.9%
- viability, T/C [15]: 83.6%
- viability, T/C [16]: 103%
- viability, T/C [17]: 82%
- viability, T/C [18]: 104%
- viability, T/C [19]: 99.5%
- viability, T/C [20]: 103%
- viability, T/C [21]: 95%
- viability, T/C (second compound 3.16 µM, first compound 0.00949 µM): 88.7%
- viability, T/C (second compound 3.16 µM, first compound 0.03 µM): 103%
- viability, T/C (second compound 3.16 µM, first compound 0.0949 µM): 96.4%
- viability, T/C (second compound 3.16 µM, first compound 0.3 µM): 114%
- viability, T/C (second compound 3.16 µM, first compound 0.949 µM): 68%
- viability, T/C (second compound 3.16 µM, first compound 3 µM): 85.1%
- viability, T/C (second compound 10 µM, first compound 0.00949 µM): 109%
- viability, T/C (second compound 10 µM, first compound 0.03 µM): 84%
- viability, T/C (second compound 10 µM, first compound 0.0949 µM): 87.3%
- viability, T/C (second compound 10 µM, first compound 0.3 µM): 59.1%
- viability, T/C (second compound 10 µM, first compound 0.949 µM): 72.8%
- viability, T/C (second compound 10 µM, first compound 3 µM): 56.3%

SMILES: Cn1ncnc1[C@H]1c2n[nH]c(=O)c3cc(F)cc(c23)N[C@@H]1c1ccc(F)cc1
- viability, T/C (compound 0.000316 µM): 106% and 114% (2×)
- viability, T/C (compound 0.001 µM): 98.2% and 93.5% and 70.4%
- viability, T/C (compound 0.00316 µM): 80.9% and 92.1% and 86.5%
- viability, T/C (compound 0.01 µM): 23.2% and 96.1% and 24.8%
- viability, T/C (compound 0.0316 µM): 14.6% and 83.9% and 22.1%
- viability, T/C (compound 0.1 µM): 12.7% and 99.4% and 18.4%

SMILES: Cc1nc(N2CCC3(CC2)COC(C)C3N)c(CO)nc1Sc1ccnc(N)c1Cl (stereo not given) + CNC(C)C(=O)NC1CN(S(=O)(=O)c2cccc(S(=O)(=O)N3CCC4CCC(C(=O)NC(c5ccccc5)c5ccccc5)N4C(=O)C(NC(=O)C(C)NC)C3)c2)CCC2CCC(C(=O)NC(c3ccccc3)c3ccccc3)N2C1=O
- IC50 (curve of first compound, second compound 0.00316 µM): > 3 µM
- IC50 (curve of first compound, second compound 0.01 µM): > 3 µM
- IC50 (curve of first compound, second compound 0.0316 µM): > 3 µM
- IC50 [1]: > 3 µM
- IC50 [2]: > 3 µM
- IC50 [3]: > 3 µM
- viability, T/C (second compound 0.00316 µM, first compound 0.00949 µM): 103%
- viability, T/C (second compound 0.00316 µM, first compound 0.03 µM): 95.3%
- viability, T/C (second compound 0.00316 µM, first compound 0.0949 µM): 104%
- viability, T/C (second compound 0.00316 µM, first compound 0.3 µM): 89%
- viability, T/C (second compound 0.00316 µM, first compound 0.949 µM): 98.5%
- viability, T/C (second compound 0.00316 µM, first compound 3 µM): 106%
- viability, T/C (second compound 0.01 µM, first compound 0.00949 µM): 102%
- viability, T/C (second compound 0.01 µM, first compound 0.03 µM): 108%
- viability, T/C (second compound 0.01 µM, first compound 0.0949 µM): 99.9%
- viability, T/C (second compound 0.01 µM, first compound 0.3 µM): 105%
- viability, T/C (second compound 0.01 µM, first compound 0.949 µM): 93.9%
- viability, T/C (second compound 0.01 µM, first compound 3 µM): 102%
- viability, T/C (second compound 0.0316 µM, first compound 0.00949 µM): 97.9%
- viability, T/C (second compound 0.0316 µM, first compound 0.03 µM): 88.3%
- viability, T/C (second compound 0.0316 µM, first compound 0.0949 µM): 95.9%
- viability, T/C (second compound 0.0316 µM, first compound 0.3 µM): 99.8%
- viability, T/C (second compound 0.0316 µM, first compound 0.949 µM): 94.7%
- viability, T/C (second compound 0.0316 µM, first compound 3 µM): 111%
- viability, T/C [4]: 99.3%
- viability, T/C [5]: 99.2%
- viability, T/C [6]: 109%
- viability, T/C [7]: 88.1%
- viability, T/C [8]: 99.5%
- viability, T/C [9]: 106%
- viability, T/C [10]: 91.8%
- viability, T/C [11]: 117%
- viability, T/C [12]: 94.9%
- viability, T/C [13]: 98.5%
- viability, T/C [14]: 94.7%
- viability, T/C [15]: 95%
- viability, T/C [16]: 106%
- viability, T/C [17]: 91.1%
- viability, T/C [18]: 104%
- viability, T/C [19]: 94.3%
- viability, T/C [20]: 90.6%
- viability, T/C [21]: 100%

Second part, led by results:

- IC50 [22]: > 10 µM
- IC50 [23]: > 10 µM
- IC50 [24]: > 10 µM
- IC50 [25]: > 10 µM
- IC50 [26]: > 10 µM
SMILES: C#Cc1c(F)ccc2cc(O)cc(-c3ncc4c(N5CC6CCC(C5)N6)nc(OCC56CCCN5CC(F)C6)nc4c3F)c12 (stereo not given) + CCN1C(C(=O)NC23CCC(C(=O)O)(CC2)CC3)C(c2cccc(Cl)c2F)C2(C(=O)Nc3cc(Cl)ccc32)C12CCCCC2
- viability, T/C [27]: 118%
- viability, T/C [28]: 98.2%
- viability, T/C [29]: 92.6%
- viability, T/C [30]: 92.1%
- viability, T/C [31]: 105%
- viability, T/C [32]: 110%
- viability, T/C [33]: 93.8%
- viability, T/C [34]: 100%
- viability, T/C [35]: 103%
- viability, T/C [36]: 100%
- viability, T/C [37]: 103%
- viability, T/C [38]: 95.4%
- viability, T/C [39]: 109%
- viability, T/C [40]: 113%
- viability, T/C [41]: 92.5%
- viability, T/C [42]: 107%
- viability, T/C [43]: 91.4%
- viability, T/C [44]: 87.6%
- viability, T/C [45]: 93%
- viability, T/C [46]: 108%
- viability, T/C [47]: 98%
- viability, T/C [48]: 109%
- viability, T/C [49]: 106%
- viability, T/C [50]: 95.1%
- viability, T/C [51]: 110%
- viability, T/C [52]: 107%
- viability, T/C [53]: 114%
- viability, T/C [54]: 99.9%
- viability, T/C [55]: 101%
- viability, T/C [56]: 102%

- IC50 [22]: 1.33 µM
- IC50 [23]: 2.02 µM
- IC50 [24]: 1.36 µM
- IC50 [25]: 2.62 µM
- IC50 [26]: 2.55 µM
SMILES: O=C(c1cc(Cc2n[nH]c(=O)c3ccccc23)ccc1F)N1CCN(C(=O)C2CC2)CC1 + CCN1C(C(=O)NC23CCC(C(=O)O)(CC2)CC3)C(c2cccc(Cl)c2F)C2(C(=O)Nc3cc(Cl)ccc32)C12CCCCC2
- viability, T/C [27]: 77.3%
- viability, T/C [28]: 101%
- viability, T/C [29]: 100%
- viability, T/C [30]: 60.9%
- viability, T/C [31]: 18.1%
- viability, T/C [32]: 8.44%
- viability, T/C [33]: 81.3%
- viability, T/C [34]: 106%
- viability, T/C [35]: 105%
- viability, T/C [36]: 77.5%
- viability, T/C [37]: 32.7%
- viability, T/C [38]: 19.7%
- viability, T/C [39]: 79.8%
- viability, T/C [40]: 102%
- viability, T/C [41]: 95.7%
- viability, T/C [42]: 57%
- viability, T/C [43]: 25.5%
- viability, T/C [44]: 8.82%
- viability, T/C [45]: 109%
- viability, T/C [46]: 99.8%
- viability, T/C [47]: 97.5%
- viability, T/C [48]: 86.7%
- viability, T/C [49]: 42.5%
- viability, T/C [50]: 5.78%
- viability, T/C [51]: 94.5%
- viability, T/C [52]: 78.1%
- viability, T/C [53]: 95.1%
- viability, T/C [54]: 93.3%
- viability, T/C [55]: 40.8%
- viability, T/C [56]: 22.3%

- IC50 (curve of compound): > 1 µM
SMILES: CCN1CCN(Cc2ccc(Nc3ncc(F)c(-c4cc(F)c5nc(C)n(C(C)C)c5c4)n3)nc2)CC1
- viability, T/C (compound 0.00316 µM): 99.7% and 83.9% and 97.2%
- viability, T/C (compound 0.01 µM): 95.4% and 91.7% and 83.9%
- viability, T/C (compound 0.0316 µM): 104% and 102% and 97.5%
- viability, T/C (compound 0.1 µM): 93.1% and 78.6% and 112%
- viability, T/C (compound 0.316 µM): 99.7% and 82.1% and 106%
- viability, T/C (compound 1 µM): 76.2% and 98% and 106%
